Experimental data from patent publication US12383523B2, “Magnetic resonance imaging drug containing deuterated sarcosine, and diagnostic method using said drug” (LIMITED LIABILITY COMPANY “SOLVEX” (“SOLVEX” LLC), priority 2018, dated 2025).

What was measured:
[1] = freely diffusing deuterated compound
Excerpt: In this case, the pharmacokinetics in a non-obvious way depends on a dose used (in particular, an excess of the renal reabsorption capacity for a particular compound can lead to its accelerated excretion). At that, the dose is limited by the toxicity and solubility of this compound.

[2] = up to the replacement of 10-30% of water in the body; cited from earlier work
[3] = Excerpt: An important property of the deuterated component (sarcosine) of the diagnostic drug of the invention is sufficient resistance to metabolic exchange of deuterium for protium in vivo. This exchange lowers the concentration of the deuterium label, while simultaneously increasing the background signal of heavy water (DOH), which is evenly distributed throughout the body due to rapid diffusion. This process leads to a decrease in the contrast of the image, and also prevents quantitive evaluation of deuterated component concentration by comparison with the intensity of natural DOH signal.
[4] = Solubility in water for injection; format: physicochemical; conditions: limits the dose to 10 mg in 1.0 ml
4T1 breast carcinoma = assay: Deuterium tomography (2H MRI) of mice with 4T1 breast carcinoma after injection of the deuterated compound; conditions: 10 mg intraperitoneally in 1.0 ml water, 20 g mouse
Experimental: The deuterium tomogram was recorded using FLASH (Fast low angle shot) pulse sequence. The excitation frequency was determined from the ^2H NMR spectrum and was on the instrument used: sfo1≈46.17452 MHz, rectangular excitation pulse 2560 Hz wide and 11.2 dB power, deflection angle FA=30°, repetition time TR=11.8 ms, echo time TE=4.07 ms, scan region10 cm×10 cm, scan matrix 50×50, slice thickness 3 cm, bandwidth 12500 Hz, total scan time 9 minutes 34 seconds (1024 accumulations).
In this example, experiments were performed on Balb/c mice grafted with 4T1 breast carcinoma (injection of 5×10^5 cells/60 μI under the left forepaw 12 days before the experiment). […] In 10 minutes after the injection, the animal was immobilized with isoflurane and placed on a heated bed in a tomograph.
An animal weighing 20 g was injected intraperitoneally with a solution:

[5] = high doses, prior art; cited from earlier work

For `[2H]O[2H]` [D2O], the “selective accumulation in various organs and tissues of a subject” value [1] was “do not show selective accumulation”.
In the case of `[2H]O` [DOH], the toxicity [2] is given as “non-toxic in very high doses”.
With `[2H]C([2H])([2H])[C@H](N)C(=O)O` [L-alanine-3,3,3-d3] the “loss of deuterium in vivo (exchange of deuterium for protium)” value [3] was “lose deuterium in vivovery quickly”.
For `[2H]c1c([2H])c([2H])c(C([2H])([2H])[C@H](N)C(=O)O)c([2H])c1[2H]` [L-phenylalanine-β, β, 2,3,4,5,6-d7], the solubility [4] was “low solubility”, the “accumulation in tumor tissue” value (4T1 breast carcinoma) was “do not accumulate in tumor tissue” and the “accumulation selectivity in various organs” value (4T1 breast carcinoma) was “do not show accumulation selectivity”.
With `[2H]C([2H])(N)C(=O)O` [glycine-2,2-d2] the “loss of deuterium in vivo (exchange of deuterium for protium)” value [3] was “lose deuterium in vivovery quickly”.
For `CNCC(=O)O` [sarcosine], the LD50 [5] is given as over 5000 mg/kg.
